# EP4434982A1, “(S)-2-(2-METHYLAZETIDIN-1-YL)PYRIMIDINE DERIVATIVE AND PHARMACEUTICAL COMPOSITION COMPRISING SAME” (LG Chem, Ltd., priority 2021, dated 2023)
# pKi: −log10 of the molar value.
# Target: T1, Ketohexokinase (KHK) (Homo sapiens, UniProt P50053)
# T1 construct: His tag; made in house; host or cells: E. coli
# T1 sequence (P50053 1-298): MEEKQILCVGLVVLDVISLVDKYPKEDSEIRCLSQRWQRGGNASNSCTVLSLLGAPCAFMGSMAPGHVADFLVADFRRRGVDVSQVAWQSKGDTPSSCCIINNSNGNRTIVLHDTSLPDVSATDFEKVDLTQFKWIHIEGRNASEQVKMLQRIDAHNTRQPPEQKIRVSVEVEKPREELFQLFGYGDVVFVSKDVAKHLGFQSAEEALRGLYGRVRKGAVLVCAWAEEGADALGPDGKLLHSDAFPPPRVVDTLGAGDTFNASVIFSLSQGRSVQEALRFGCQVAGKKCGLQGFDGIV
# Test: measurement of activity in vitro of ketohexokinase inhibitor (Transcreener ADP2 TR-FRET Red Assay, ADP produced)
# Assay type: biochemical
# Settings: KHK pre-reacted with inhibitor 30 minutes, then substrate (ATP, fructose) 15 minutes; Ki by Morrison equation
# Description: Ketohexokinase (KHK) was expressed in E. Coli and purified using His tag. In order to measure the activity of the purified KHK, Transcreener ADP2 TR-FRET Red Assay kit of BellBrook Labs was used. A method of measuring the amount of ADP produced was used using TR-FRET after reacting a solution including a suitable concentration of KHK protein and ATP, and fructose for 15 minutes. In order to see the activity of a ketohexokinase (KHK) inhibitor, ketohexokinase (KHK) and a suitable concentration of an inhibitor were reacted first for 30 minutes, and then, reacted with a solution including the substrate of ketohexokinase (KHK) for 15 minutes. Then, reaction for TR-FRET was performed for 1 hour, and fluorescence was measured using Envision equipment of PerkinElmer. According to the optimization procedure of TR-FRET published by BellBrook Lab, the set value of the Envision equipment was determined.
# The result values by concentration of the ketohexokinase (KHK) inhibitor were determined as the ratio of a wavelength of 665 nm and a wavelength of 615nm. The 665/615 ratio value by concentration of each inhibitor was converted to ADP concentration based on ADP standard curve, and inhibition activity Ki value was obtained using Morrison equation by statistical software (Prizm). Meanwhile, the Ki value is a value representing the binding affinity of the inhibitor and an enzyme, and a lower value means better inhibitory activity.
row,pKi,Compound
1,≥ 8.00,"C[C@H]1CCN1c1nc(-c2ccc(OCC(=O)N3CCNCC3)nc2)cc(C(F)(F)F)n1 [Example 39, (S)-2-((5-(2-(2-methylazetidin-1-yl)-6-(trifluoromethyl)pyrimidin-4-yl)pyridin-2-yl)oxy)-1-(piperazin-1-yl)ethan-1-one]"
2,7.00 to 8.00,"C[C@H]1CCN1c1nc(N2C[C@@H](OCC(=O)N3CCNCC3)[C@@H]2C)c2c(n1)C(F)(F)CC2 [Example 5, 2-(((2S,3R)-1-(7,7-difluoro-2-((S)-2-methylazetidin-1-yl)-6,7-dihydro-5H-cyclopenta[d]pyrimidin-4-yl)-2-methylazetidin-3-yl)oxy)-1-(piperazin-1-yl)ethan-1-one]"
3,≥ 8.00,"C[C@H]1CCN1c1nc(N2CC[C@@H](OCC(=O)N3CCNCC3)C2)c2c(n1)C(F)(F)CC2 [Example 8, 2-(((R)-1-(7,7-difluoro-2-((S)-2-methylazetidin-1-yl)-6,7-dihydro-5H-cyclopenta[d]pyrimidin-4-yl)pyrrolidin-3-yl)oxy)-1-(piperazin-1-yl)ethan-1-one]"
4,≥ 8.00,C[C@H]1CCN1c1nc(N2CC[C@H](CC(=O)N3CCNCC3)C2)c2c(n1)C(F)(F)CC2 [Example 9]
5,≥ 8.00,"C[C@H]1CCN1c1nc(C2CCN(CC(=O)N3CCNCC3)CC2)c2c(n1)C(F)(F)CC2 [Example 17, (S)-2-(4-(7,7-difluoro-2-(2-methylazetidin-1-yl)-6,7-dihydro-5H-cyclopenta[d]pyrimidin-4-yl)piperidin-1-yl)-1-(piperazin-1-yl)ethan-1-one]"
6,≥ 8.00,C[C@H]1CCN1c1nc(N2CCN(C(=O)CC(=O)N3CCNCC3)CC2)c2c(n1)C(F)(F)CC2 [Example 15]
7,≥ 8.00,C[C@H]1CCN1c1nc(-c2ccc(CC(=O)N3CCNCC3)nc2)cc(C(F)(F)F)n1 [Example 31]
8,6.00 to 7.00,"C[C@H]1CCN1c1nc(N2CC[C@H](OCC(=O)N3CCNCC3)C2)cc(C(F)(F)F)n1 [Example 6, 2-(((S)-1-(2-((S)-2-methylazetidin-1-yl)-6-(trifluoromethyl)pyrimidin-4-yl)pyrrolidin-3-yl)oxy)-1-(piperazin-1-yl)ethan-1-one]"

row,Compound,pKi
1,C[C@H]1CCN1c1nc(-c2ccc(OCC(=O)N3CCNCC3)nc2)c2c(n1)C(F)(F)CC2 [Example 37],≥ 8.00
2,"C[C@H]1CCN1c1nc(N2CC(OCC(=O)N3CCNCC3)C2)cc(C(F)(F)F)n1 [Example 1, (S)-2-((1-(2-(2-methylazetidin-1-yl)-6-(trifluoromethyl)pyrimidin-4-yl)azetidin-3-yl)oxy)-1-(piperazin-1-yl)ethan-1-one]",7.00 to 8.00
3,C[C@H]1CCN1c1nc(-c2ccc(CC(=O)O)cc2)c2c(n1)C(F)(F)CC2 [Example 29],7.00 to 8.00
